Data reported in PMC12156367, “Synthesis and Biological Evaluation of Seco-Coumarin/Furoxan Hybrids as Potent Anti-Tumor Agents to Overcome Multidrug Resistance via Multiple Mechanisms” (Molecules, 2025).
Like-named read-outs stand apart in the source and are kept apart here.

Experiments:
[1] = test system: MCF-7/ADR (doxorubicin-resistant human breast cancer cell line); assay: In vitro antiproliferative assay (MTT, 48 h), MCF-7/ADR; format: cell-based; conditions: for Selectivity Ratio IC50(MCF-7)/ IC50(MCF-7/ADR): collateral sensitivity; for IC50: Homo sapiens, NCI/ADR-RES, MTT, 48 h, mean of three determinations
Text: (§1) The MDA-MB-468 cell line was procured from the Cell Bank of the Chinese Academy of Sciences. The MCF-7, MCF-7/ADR, MCF-10A, and MDA-MB-231 cell lines were kindly provided by Professor Xianyi Sha (Fudan University, Shanghai, China). The HUVEC cells were kindly provided by Associate Professor Hulie Zeng (Fudan University, Shanghai, China). The MDA-MB-468, MDA-MB-231, MCF-7, MCF-10A, and HUVEC cells were cultivated in DMEM (Service Biotechnology, China) supplemented with 10% FBS (Capricorn Scientific, Germany) and 1% penicillin-streptomycin (Meilunbio, Dalian, China). For the MCF-7/ADR cells, they were cultured in RPMI-1640 (Service Biotechnology, Wuhan, China), containing 10% FBS and 1% penicillin-streptomycin. Additionally, 500 ng/mL of doxorubicin (Sigma-Aldrich, Saint Louis, MO, USA) was incorporated into the RPMI-1640 culture medium to keep drug resistance. All cell lines were cultured in a humidified incubator at 37 °C with a 5% CO2 atmosphere.
Following harvest during logarithmic growth, cells were plated in 96-well culture plates at an initial density of 5000 cells per well. Incubate the plate overnight at 37 °C to allow the cells to adhere. Following the overnight incubation, introduce the compound at the predetermined concentration into each well, and then return the plate to the incubator for an additional 48 h culture period. After the 48 h treatment, carefully aspirate the drug-containing medium from each well. Subsequently, add 150 μL of 0.5 mg/mL MTT (Beyotime, China) solution to each well. Protect the plate from light and incubate it at 37 °C for 4 h to allow the formation of formazan crystals. Finally, add 150 μL of DMSO (Sinopharm, China) to each well and gently mix to ensure complete dissolution of the formazan crystals. The OD value at 570nm was measured using a microplate reader (Thermo Fisher, Waltham, MA, USA). Cell proliferation inhibition was determined using the following formula:Inhibition (%) = [(ODDMSO − ODcompd.)/(ODDMSO − ODblank)] × 100
GraphPad Prism software 9 was used to calculate the IC50 values. The specific calculation process is as follows: Firstly, we input the experimental data into Prism. The data include the concentrations of the experimental compounds and the corresponding biological response values. For instance, in the cell experiment, we recorded the cell viability values at different drug concentrations. Subsequently, we select the option of “Dose–Response–Nonlinear Regression” in the “Analyze” menu for curve fitting. Generally speaking, we use the model of “[Inhibitor] vs. normalized response—Variable slope”. The Prism software fits the data through the nonlinear least squares method and finds the parameter values that can minimize the difference between the model’s predicted values and the actual data. After completing the curve fitting, the software will directly provide the estimated values and confidence intervals of the IC50 value and other relevant parameters. Meanwhile, it will also offer goodness-of-fit indices, such as the correlation coefficient, to evaluate the quality of the fitting. Through the above method, we can accurately calculate the IC50 value, thereby assessing the intensity of the inhibitory or activating effect of the compound on the biological system.

[2] = test system: human normal mammary epithelial cell lines MCF-10A; assay: Cytotoxicity in normal mammary epithelial cells (MTT); format: cell-based; conditions: normal mammary epithelial cell line
Text: as §1, with “Additionally, 500 ng/mL of doxorubicin (Sigma-Aldrich, Saint Louis, MO, USA) was incorporated into the RPMI-1640 culture medium to keep drug resistance. All cell lines were cultured in a humidified incubator at 37 °C with a 5% CO2 atmosphere.” left out
(§2) Following harvest during logarithmic growth, cells were plated in 96-well culture plates at an initial density of 5000 cells per well. […] The OD value at 570nm was measured using a microplate reader (Thermo Fisher, Waltham, MA, USA). Cell proliferation inhibition was determined using the following formula:Inhibition (%) = [(ODDMSO − ODcompd.)/(ODDMSO − ODblank)] × 100
GraphPad Prism software 9 was used to calculate the IC50 values. […] For instance, in the cell experiment, we recorded the cell viability values at different drug concentrations. […]

[3] = Solubility experiment (HPLC) in water/acetonitrile; format: physicochemical; conditions: in water/acetonitrile (table title)
Description: Wavelength: 254 nm; flow rate: 1.0 mL/min; column temperature: 25 °C. Mobile phase: Phase A: water, Phase B: acetonitrile (Table 5).
Compounds were dissolved in chromatographic-grade acetonitrile and diluted to concentrations of 200, 100, 50, 25, 12.5, and 6.25 µg/mL. A standard curve was plotted using the peak area under the curve (AUC) versus concentration. […] The supernatant was filtered through an ultrafiltration membrane and then subjected to HPLC analysis. The solubility of the target compound was determined by substituting the AUC of the test compound into the standard curve. Each measurement was performed in triplicate.

[4] = test system: MCF-7/ADR (doxorubicin-resistant human breast cancer cell line); conditions: earlier compounds, ref 19 (4A93), 20 (6C44), cited from earlier work; for IC50: read-out: IC50 MCF-7/ADR (Figure 2)
[5] = test system: HUVEC (human umbilical vein endothelial cell lines); assay: Cytotoxicity screen in HUVEC; format: cell-based; conditions: 500 nM concentration
Text: as §1
as §2, with “well. Incubate the plate overnight at 37 °C to allow the cells to adhere.” for “well.”, “100 […]” for “100”

Compound | Selectivity Ratio IC50(MCF-7)/ IC50(MCF-7/ADR) [1] | Solubility [3] [%] | further results
COc1ccc(/C=C/C(=O)c2ccc(OCCCOc3no[n+]([O-])c3S(=O)(=O)c3ccccc3)cc2OC)cc1 [Compound 6d, (E)-4-(3-(3-methoxy-4-(3-(4-methoxyphenyl)acryloyl)phenoxy)propoxy)-3-(phenylsulfonyl)-1,2,5-oxadiazole 2-oxide] | 91.1 | 24.3 ± 2.5 | IC50 [2]: 13.4 µM
COc1cc(OCCOc2no[n+]([O-])c2S(=O)(=O)c2ccccc2)ccc1C(=O)/C=C/c1ccc(C#N)cc1 [Compound 6e, (E)-4-(2-(4-(3-(4-cyanophenyl)acryloyl)-3-methoxyphenoxy)ethoxy)-3-(phenylsulfonyl)-1,2,5-oxadiazole 2-oxide] | 328.3 | 21.2 ± 3.3 | –
O=C(NCc1ccccc1)c1ccc(OCCOc2no[n+]([O-])c2S(=O)(=O)c2ccccc2)cc1O [Compound 16a, 4-(2-(4-(benzylcarbamoyl)-3-hydroxyphenoxy)ethoxy)-3-(phenylsulfonyl)-1,2,5-oxadiazole 2-oxide] | 7.2 | 125 ± 7.1 | –
COc1cc(OCCOc2no[n+]([O-])c2S(=O)(=O)c2ccccc2)ccc1C(=O)CCc1ccc(F)cc1 [Compound 9c, 4-(2-(4-(3-(4-fluorophenyl)propanoyl)-3-methoxyphenoxy)ethoxy)-3-(phenylsulfonyl)-1,2,5-oxadiazole 2-oxide] | 137.1 | 40.8 ± 8.2 | –
Cc1c(Cc2ccc(C(F)(F)F)cc2)c(=O)oc2cc(OCCOc3no[n+]([O-])c3S(=O)(=O)c3ccccc3)ccc12 [Compound 4A93] | – | – | IC50 [4]: 5 nM
COc1cc(OCCOc2no[n+]([O-])c2S(=O)(=O)c2ccccc2)ccc1C(=O)CCc1ccccc1 [Compound 9a, 4-(2-(3-methoxy-4-(3-phenylpropanoyl)phenoxy)ethoxy)-3-(phenylsulfonyl)-1,2,5-oxadiazole 2-oxide] | 1716.9 | 23.5 ± 4.1 | –
COc1cc(OCCCOc2no[n+]([O-])c2S(=O)(=O)c2ccccc2)ccc1C(=O)/C=C/c1ccc(F)cc1 [Compound 6b, (E)-4-(3-(4-(3-(4-fluorophenyl)acryloyl)-3-methoxyphenoxy)propoxy)-3-(phenylsulfonyl)-1,2,5-oxadiazole 2-oxide] | 286.6 | 45.8 ± 3.4 | –
COc1cc(OCCOc2no[n+]([O-])c2S(=O)(=O)c2ccccc2)ccc1C(=O)NCc1ccc(C#N)cc1 [Compound 18e, 4-(2-(4-((4-cyanobenzyl)carbamoyl)-3-methoxyphenoxy)ethoxy)-3-(phenylsulfonyl)-1,2,5-oxadiazole 2-oxide] | 235.0 | 44.7 ± 10.2 | IC50 [1]: 19.9 nM
COc1cc(OCCOc2no[n+]([O-])c2S(=O)(=O)c2ccccc2)ccc1C(C)=O [Compound 12a, 4-(2-(4-acetyl-3-methoxyphenoxy)ethoxy)-3-(phenylsulfonyl)-1,2,5-oxadiazole 2-oxide] | 189.3 | 67.9 ± 7.8 | cell survival probability in HUVEC [5]: over 90%
O=C(NCc1ccc(C(F)(F)F)cc1)c1ccc(OCCOc2no[n+]([O-])c2S(=O)(=O)c2ccccc2)cc1O [Compound 16d, 4-(2-(3-hydroxy-4-((4-(trifluoromethyl)benzyl)carbamoyl)phenoxy)ethoxy)-3-(phenylsulfonyl)-1,2,5-oxadiazole 2-oxide] | 257.8 | 61.1 ± 2.6 | IC50 [1]: 10.5 nM
COc1cc(OCCOc2no[n+]([O-])c2S(=O)(=O)c2ccccc2)ccc1C(=O)NCc1ccc(F)cc1 [Compound 18b, 4-(2-(4-((4-fluorobenzyl)carbamoyl)-3-methoxyphenoxy)ethoxy)-3-(phenylsulfonyl)-1,2,5-oxadiazole 2-oxide] | 101.7 | 60.9 ± 9.8 | –
COc1cc(OCCOc2no[n+]([O-])c2S(=O)(=O)c2ccccc2)ccc1C(=O)/C=C/c1ccccc1 [Compound 6C44] | – | – | IC50(MCF-7)/IC50(MCF-7/ADR) (Figure 2) [4]: 199.2; IC50 [4]: 4.2 nM
O=C(NCc1ccc(O)cc1)c1ccc(OCCOc2no[n+]([O-])c2S(=O)(=O)c2ccccc2)cc1O [Compound 16f, 4-(2-(3-hydroxy-4-((4-hydroxybenzyl)carbamoyl)phenoxy)ethoxy)-3-(phenylsulfonyl)-1,2,5-oxadiazole 2-oxide] | 64.4 | 81.0 ± 7.9 | –
COc1cc(OCCCOc2no[n+]([O-])c2S(=O)(=O)c2ccccc2)ccc1C(=O)CCc1ccc(F)cc1 [Compound 9d, 4-(3-(4-(3-(4-fluorophenyl)propanoyl)-3-methoxyphenoxy)propoxy)-3-(phenylsulfonyl)-1,2,5-oxadiazole 2-oxide] | 1394.2 | 117 ± 10.8 | –
COc1cc(OCCCOc2no[n+]([O-])c2S(=O)(=O)c2ccccc2)ccc1C(=O)/C=C/c1ccc(C#N)cc1 [Compound 6f, (E)-4-(3-(4-(3-(4-cyanophenyl)acryloyl)-3-methoxyphenoxy)propoxy)-3-(phenylsulfonyl)-1,2,5-oxadiazole 2-oxide] | 212.9 | 67.2 ± 6.1 | –
